Data on 40 compounds can be found in patent US20080287398A1, “COLD MENTHOL RECEPTOR-1 ANTAGONISTS” (priority 2007, published 2008).

One may read the IC50 as the point on the concentration scale where inhibition reaches its midpoint.

Where “and” joins values, the source holds several entries; their conditions need not be identical. Equal entries are not always repeated. Where two headings read alike, the source gives them in different places.

The assay concerns the target T1, canine TRPM8 (Canis lupus familiaris, UniProt Q1A7N1).
T1 construct: expressed in transfected cells
The experiment in a line: In vitro canine TRPM8 functional assay (Ca2+-sensitive dye, FLIPR/FDSS, icilin activation). The following applies: HEK293 cells expressing canine TRPM8, icilin activation; for IC50: eight-point dose-response; for % I (1 μM): 1 μM compound. The class given is cell-based. How it is done:
The functional activity of compounds of Formula (I) was determined by measuring changes in intracellular calcium concentration using a Ca^2+-sensitive fluorescent dye. The changes in fluorescent signal were monitored by a fluorescence plate reader, either a FLIPR™ (Molecular Devices) or FDSS (Hamamatsu).
HEK293 cells stably expressing canine TRPM8 were routinely grown as monolayers in Dulbecco's minimum essential medium supplemented with 10% FBS, 1 mM L-glutamine, 100 units/mL penicillin, 100 ug/mL streptomycin and 400 μg/mL G418. Cells were maintained in 5% CO2 at 37° C. At 24 hrs prior to assay, cells were seeded in clear-base poly-D-lysine coated 384-well plates (BD Biosciences, NJ, USA) at a density of 5,000 cells per well in culture medium and grown overnight in 5% CO2 at 37° C. On assay day, growth media was removed and cells were loaded with Calcium 3 Dye (Molecular Devices) for 35 min at 37° C., under 5% CO2 and then for 25 min at room temperature and atmosphere. Subsequently, cells were tested for agonist-induced increases in intracellular Ca^2+ levels using FLIPR™ or FDSS. Cells were challenged with a compound of Formula (I) (at varying concentrations) and intracellular Ca^2+ was measured for 5 min prior to the addition of icilin to all wells to achieve a final concentration which produces approximately an 80% maximal response.
Basal FI was subtracted prior to normalizing data to percent of maximal response. Curves were generated using the average of quadruplicate wells for each data point, were analyzed using nonlinear regression of either sigmoidal dose response or sigmoidal dose response (variable slope). Finally, the EC50 and IC50 values were calculated with the best-fit dose curve determined by GraphPad Prism.

[1] abbreviates: HEK293, read-out: % I (1 μM), 1 μM compound.
Setting [2] is: HEK293, 1 μM compound, read-out: % I (1 μM).

T1 sequence (Q1A7N1 1-1104): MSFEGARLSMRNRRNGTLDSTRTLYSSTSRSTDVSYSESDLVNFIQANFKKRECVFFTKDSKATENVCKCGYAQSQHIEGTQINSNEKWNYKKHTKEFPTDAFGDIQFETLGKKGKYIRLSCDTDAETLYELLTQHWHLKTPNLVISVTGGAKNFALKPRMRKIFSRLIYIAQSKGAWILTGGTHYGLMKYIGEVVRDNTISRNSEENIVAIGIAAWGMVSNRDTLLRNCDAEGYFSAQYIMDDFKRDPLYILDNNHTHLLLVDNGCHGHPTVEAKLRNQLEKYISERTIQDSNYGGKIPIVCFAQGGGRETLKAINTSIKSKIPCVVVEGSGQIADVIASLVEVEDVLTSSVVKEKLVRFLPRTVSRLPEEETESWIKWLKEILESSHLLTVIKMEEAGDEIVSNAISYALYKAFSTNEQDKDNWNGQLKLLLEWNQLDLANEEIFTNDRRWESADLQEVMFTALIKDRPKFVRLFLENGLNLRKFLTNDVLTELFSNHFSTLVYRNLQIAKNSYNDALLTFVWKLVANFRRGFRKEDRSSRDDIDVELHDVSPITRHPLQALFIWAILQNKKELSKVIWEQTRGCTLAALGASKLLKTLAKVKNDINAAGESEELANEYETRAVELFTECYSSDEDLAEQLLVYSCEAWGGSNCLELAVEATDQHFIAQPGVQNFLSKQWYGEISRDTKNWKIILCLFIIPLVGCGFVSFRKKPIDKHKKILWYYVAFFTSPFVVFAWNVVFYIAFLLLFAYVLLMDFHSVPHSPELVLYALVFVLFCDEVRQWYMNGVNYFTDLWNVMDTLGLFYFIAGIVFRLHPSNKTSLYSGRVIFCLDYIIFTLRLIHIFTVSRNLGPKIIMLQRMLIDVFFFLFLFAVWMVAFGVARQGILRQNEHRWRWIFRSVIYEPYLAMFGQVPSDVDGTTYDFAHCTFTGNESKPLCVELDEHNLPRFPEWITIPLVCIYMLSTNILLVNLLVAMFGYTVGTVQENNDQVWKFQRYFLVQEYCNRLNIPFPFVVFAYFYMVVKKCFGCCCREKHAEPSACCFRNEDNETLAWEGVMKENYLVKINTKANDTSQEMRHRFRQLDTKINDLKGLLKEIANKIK

As for `CCOP(=O)(OCC)C(Cc1ccc(F)c(F)c1)c1sc2cc(F)ccc2c1C` (stereo not drawn) [Cpd 16, [2-(3,4-Difluoro-phenyl)-1-(6-fluoro-3-methyl-benzo[b]-thiophene-2-yl)-ethyl]-phosphonic acid diethyl ester], under setting [1], the inhibition at 1 µM came to 100%. Besides, the IC50 (IC50 (μM)) is 0.057 µM and 0.064 µM.
For `CC(C)OP(=O)(OC(C)C)C(Cc1ccc(F)c(F)c1)c1sc2ccccc2c1C(C)C` (stereo not drawn) [Cpd 19], the “% I (1 μM)” value was determined as 100%. Besides, where the note is “read-out: IC50”, the IC50 stood at 0.068 µM.
In the case of `CC(C)OP(=O)(OC(C)C)C(Cc1ccc(F)c(F)c1)c1sc2ccccc2c1C1CC1` (stereo not drawn) [Cpd 20, [1-(3-Cyclopropyl-benzo[b]thiophene-2-yl)-2-(3,4-difluoro-phenyl)-ethyl]-phosphonic acid diisopropyl ester], the inhibition at 1 µM under setting [2] amounted to 100%. Moreover, the IC50 (read-out: IC50) was 0.07 µM.
Take `CCOP(=O)(OCC)C(Cc1cccc(Cl)c1F)c1sc2ccccc2c1C` (stereo not drawn) [Cpd 23]: the “% I (1 μM)” value stood at 100%. Besides, the IC50 (read-out: IC50) is 0.096 µM.
As for `CCOP(=O)(OCC)C(Cc1ccc(Cl)c(Cl)c1)c1sc2ccccc2c1Br` (stereo not drawn) [Cpd 24, [1-(3-Bromo-benzo[b]thiophen-2-yl)-2-(3,4-dichloro-phenyl)-ethyl]-phosphonic acid diethyl ester], under setting [1], the inhibition at 1 µM was 100%. This compound also gave an IC50 (IC50 (μM)) of 0.107 µM.
For the compound `CC(C)OP(=O)(OC(C)C)C(Cc1ccc(F)c(F)c1)c1nc2ccccc2s1` (stereo not drawn) [Cpd 25, [1-Benzothiazol-2-yl-2-(3,4-difluoro-phenyl)-ethyl]-phosphonic acid diisopropyl ester], the inhibition at 1 µM under setting [2] turned out to be 101%. For the same compound, the IC50 (read-out: IC50) is 0.12 µM and 0.19 µM.
Take `CCOP(=O)(OCC)C(Cc1ccccc1C)c1sc2ccccc2c1C` (stereo not drawn) [Cpd 26]: the “% I (1 μM)” value was determined as 100%. In addition, where the note is “read-out: IC50”, the half-inhibitory concentration (IC50) was found to be 0.108 µM.
The matching figures for `CCOP(=O)(OCC)C(Cc1ccc(F)cc1Cl)c1sc2ccccc2c1C` (stereo not drawn) [Cpd 27]: 99% and 0.11 µM.
As to `CCOP(=O)(OCC)C(Cc1cc(F)cc(F)c1Cl)c1sc2ccccc2c1C` (stereo not drawn) [Cpd 28], the “% I (1 μM)” value amounted to 100%. Further, the IC50 (read-out: IC50) was 0.11 µM.
In the same order, the values of `CCOP(=O)(OCC)C(Cc1cccc(Cl)c1Cl)c1sc2ccccc2c1C` (stereo not drawn) [Cpd 35] are 100% and 0.125 µM.
In the same order, the values of `CCOP(=O)(CC(C)C)C(Cc1ccc(F)c(F)c1)c1sc2ccccc2c1C` (stereo not drawn) [Cpd 36, [2-(3,4-Difluoro-phenyl)-1-(3-methyl-benzo[b]thiophene-2-yl)-ethyl]-isobutyl-phosphonic acid ethyl ester] are 100% and 0.126 µM.
The matching figures for `CCOP(=O)(OCC)C(Cc1cccc(C(F)(F)F)c1F)c1sc2ccccc2c1C` (stereo not drawn) [Cpd 37]: 100% and 0.127 µM.
`CC(C)OP(=O)(OC(C)C)C(Cc1ccc(F)c(F)c1)c1sc2ccccc2c1C1CCCC1` (stereo not drawn) [Cpd 38]: the “% I (1 μM)” value is 99%. Further, for the setting “read-out: IC50”, the IC50 amounted to 0.14 µM.
In the same order, the values of `CCOP(=O)(OCC)C(Cc1cccc(C(F)(F)F)c1)c1cc2ccccc2s1` (stereo not drawn) [Cpd 39] are 100% and 0.141 µM.
In the case of `CC(C)OP(=O)(OC(C)C)C(Cc1ccc(F)c(F)c1)c1sc2ccccc2c1C(F)(F)F` (stereo not drawn) [Cpd 43, [2-(3,4-Difluoro-phenyl)-1-(3-trifluoromethyl-benzo[b]-thiophene-2-yl)-ethyl]-phosphonic acid diisopropyl ester], under setting [2], the inhibition at 1 µM worked out at 100%. Further, the IC50 (read-out: IC50) is 0.16 µM.
For the compound `CCOP(=O)(OCC)C(Cc1ccc(F)c(F)c1)c1sc2ccc(F)cc2c1C` (stereo not drawn) [Cpd 45, [2-(3,4-Difluoro-phenyl)-1-(5-fluoro-3-methyl-benzo[b]thiophene-2-yl)-ethyl]-phosphonic acid diethyl ester], the inhibition at 1 µM under setting [1] is 100%. This compound also came in with an IC50 (IC50 (μM)) of 0.164 µM.
Turning to `CCOP(=O)(OCC)C(Cc1ccc2ccccc2c1)c1sc2ccccc2c1C` (stereo not drawn) [Cpd 46], the “% I (1 μM)” value is 99%. Besides, the IC50 (read-out: IC50) was determined as 0.167 µM.
Regarding `CCOP(=O)(OCC)C(Cc1ccccc1Cl)c1sc2ccccc2c1C` (stereo not drawn) [Cpd 48], the “% I (1 μM)” value is given as 100%. Further, the IC50 (read-out: IC50) came to 0.169 µM.
In the same order, the values of `CCOP(=O)(OCC)C(Cc1c(Cl)cccc1Cl)c1sc2ccccc2c1C` (stereo not drawn) [Cpd 54] are 100% and 0.23 µM.
The matching figures for `CCOP(=O)(OCC)C(Cc1cc(F)cc(C(F)(F)F)c1)c1sc2ccccc2c1C` (stereo not drawn) [Cpd 56]: 103% and 0.24 µM.
The matching figures for `CCOP(=O)(OCC)C(Cc1cccc(OC(F)(F)F)c1)c1sc2ccccc2c1C` (stereo not drawn) [Cpd 57]: 100% and 0.26 µM.
Take `CCOP(=O)(OCC)C(Cc1ccc(C(F)(F)F)c(F)c1)c1cc2ccccc2s1` (stereo not drawn) [Cpd 58]: the “% I (1 μM)” value is 100%. Also, the IC50 (read-out: IC50) was found to be 0.27 µM.
The matching figures for `CCOP(=O)(OCC)C(Cc1ccccc1C(F)(F)F)c1sc2ccccc2c1C` (stereo not drawn) [Cpd 59]: 99% and 0.27 µM.
The matching figures for `CCOP(=O)(OCC)C(Cc1c(Cl)ccc(C)c1F)c1sc2ccccc2c1C` (stereo not drawn) [Cpd 60]: 100% and 0.28 µM.
In the same order, the values of `CCOP(=O)(OCC)C(Cc1ccccc1OC(F)(F)F)c1sc2ccccc2c1C` (stereo not drawn) [Cpd 61] are 100% and 0.28 µM.
Regarding `Cc1ccc2sc(C(Cc3ccc(F)c(F)c3)P(=O)(OC(C)C)OC(C)C)c(C)c2c1` (stereo not drawn) [Cpd 62, 2-(3,4-Difluoro-phenyl)-[1-(3,5-dimethyl-benzo[b]thiophen-2-yl)-ethyl]-phosphonic acid diisopropyl ester], the inhibition at 1 µM under setting [2] was 95%. The IC50 (read-out: IC50) worked out at 0.29 µM.
The matching figures for `CC(C)OP(=O)(OC(C)C)C(Cc1ccc(F)c(F)c1)c1cc2ccccc2s1` (stereo not drawn) [Cpd 63, [1-Benzo[b]thiophen-2-yl-2-(3,4-difluoro-phenyl)-ethyl]-phosphonic acid diisopropyl ester]: 100% and 0.3 µM.
As to `CCOP(=O)(OCC)C(Cc1ccc(Cl)c(Cl)c1)c1sc2ccccc2c1-c1ccccc1` (stereo not drawn) [Cpd 64, [2-(3,4-Dichloro-phenyl)-1-(3-phenyl-benzo[b]thiophen-2-yl)-ethyl]-phosphonic acid diethyl ester], under setting [1], the inhibition at 1 µM is 64%. This compound yielded an IC50 (IC50 (μM)) of 0.3 µM.
In the same order, the values of `CCOP(=O)(OCC)C(Cc1ccc(F)c(F)c1)c1sc2cccc(Cl)c2c1C` (stereo not drawn) [Cpd 65, [1-(4-Chloro-3-methyl-benzo[b]thiophen-2-yl)-2-(3,4-difluoro-phenyl)-ethyl]-phosphonic acid diethyl ester] are 100% and 0.3 µM.
With `CCOP(=O)(OCC)C(Cc1ccccc1Br)c1sc2ccccc2c1C` (stereo not drawn) [Cpd 66], the “% I (1 μM)” value stood at 100%. The IC50 (read-out: IC50) amounted to 0.33 µM.
In the same order, the values of `CCOP(=O)(OCC)C(Cc1cc(C(F)(F)F)ccc1F)c1sc2ccccc2c1C` (stereo not drawn) [Cpd 67] are 100% and 0.33 µM.
In the same order, the values of `CCOP(=O)(OCC)C(Cc1ccc(C(F)(F)F)cc1)c1cc2ccccc2s1` (stereo not drawn) [Cpd 68] are 96% and 0.34 µM.
The matching figures for `CC(C)OP(=O)(OC(C)C)C(Cc1cccc(C(F)(F)F)c1)c1cc2ccccc2s1` (stereo not drawn) [Cpd 69]: 99% and 0.35 µM.
Consider `CCOP(=O)(OCC)C(Cc1ccc(Br)cc1)c1cc2ccccc2s1` (stereo not drawn) [Cpd 70], for which the “% I (1 μM)” value was 82%. Moreover, the “% I (5 μM)” value (5 μM compound) is 99%. In addition, the IC50 (read-out: IC50) came to 0.35 µM.
Take `CCOP(=O)(OCC)C(Cc1cc2c(cc1Cl)OCO2)c1sc2ccccc2c1C` (stereo not drawn) [Cpd 71]: the “% I (1 μM)” value amounted to 98%. For the same compound, the IC50 (read-out: IC50) came out at 0.36 µM.
Turning to `CCOP(=O)(OCC)C(Cc1cccc(-c2ccncc2)c1)c1sc2ccccc2c1C` (stereo not drawn) [Cpd 72, [1-(3-Methyl-benzo[b]thiophen-2-yl)-2-(3-pyridin-4-yl-phenyl)-ethyl]-phosphonic acid diethyl ester], the inhibition at 1 µM under setting [1] came out at 99%. Where the note is “IC50 (μM)”, this compound returned a concentration for half-maximal inhibition (IC50) of 0.36 µM.
Regarding `CCOP(=O)(OCC)C(Cc1cc(C(F)(F)F)cc(Cl)c1F)c1sc2ccccc2c1C` (stereo not drawn) [Cpd 73], the “% I (1 μM)” value is 100%. Further, the IC50 (read-out: IC50) is 0.36 µM.
The matching figures for `CCOP(=O)(OCC)C(Cc1ccccc1)c1cc2ccccc2s1` (stereo not drawn) [Cpd 74]: 92% and 0.38 µM.
The matching figures for `CCOP(=O)(OCC)C(Cc1cc(F)c(Cl)cc1Cl)c1sc2ccccc2c1C` (stereo not drawn) [Cpd 76]: 100% and 0.4 µM.
As to `CCOP(=O)(OCC)C(Cc1cccc(-c2ccccc2)c1)c1sc2ccccc2c1C` (stereo not drawn) [Cpd 77], the inhibition at 1 µM under setting [1] came out at 98%. Where the note is “IC50 (μM)”, this compound showed an IC50 of 0.41 µM.
